Measurements reported in US20210322508A1, “PEPTIDES AND COMPOSITIONS FOR TARGETED TREATMENT AND IMAGING” (SIGNABLOK, INC., priority 2018, published 2021).
Residues, ends and D or L forms follow the SMILES beside them.

Assays:
[1] = system: C57BL/6 mice with LPS-induced septic shock; test: LPS-induced septic shock: survival; format: in vivo, mouse; conditions: free peptides, at this dose; 30 mg/kg LPS i.p.
Procedure: One hour later, mice received i.p. injection of 30 mg/kg LPS from E. coli 055:B5 (Sigma). In some experiments, all formulations were i.p. administered 1 and 3 h after LPS injection. The viability of mice was examined hourly. Body weights were measured daily. In all of the animal experiments, blood samples were collected via a sub-mandibular (cheek) bleed at 90 min after administration of LPS. Statistical analysis of survival curves was performed by the Kaplan-Meier test. Comparisons were made using two-tailed Student's t test. The production of cytokines in serum was measured by a standard sandwich cytokine ELISA procedure using TNF-alpha, IL-1beta and IL-6 ELISA kits (Pierce Biotechnology, Thermo Scientific, Rockford, Ill.) according to the instructions of the manufacturer. Statistical significances in cytokine analysis ELISA data were determined by two-tailed Student's t test.
Naïve, female C57BL/6 mice at 8 to 10 weeks of age (18 to 21 g) from the Jackson Laboratory were randomly grouped (10 mice per group) and i.p. injected with vehicle or the indicated doses of dexamethasone (DEX), GF9, G-TE21, G-HV21 and G-KV21. One hour later, mice received i.p. injection of 30 mg/kg LPS from E. coli 055:B5 (Sigma). […] Body weights were measured daily. […] Statistical significances in cytokine analysis ELISA data were determined by two-tailed Student's t test.

[2] = system: LPS-challenged mice; test: survival of LPS-challenged (septic shock) mice; format: in vivo; conditions: vs vehicle
Text: FIG. 15B. **, P=0.001 to 0.01 as compared with vehicle-treated animals.

[3] = system: LPS-challenged mice; test: cytokine production in LPS-challenged mice; format: in vivo; conditions: treated 1 h before LPS challenge
Procedure: Control peptide represents an equimolar mixture of two peptides, each of them comprising two amino acid domains A and B where domain A represents a non-functional 9 amino acids-long sequence of the TREM-1 inhibitory therapeutic peptide sequence wherein, Lys5 is substituted with Ala5, whereas domain B is a sulfoxidized methionine residue-containing 22 amino acids-long apolipoprotein A-I helix 4 or 6 peptide sequence, respectively. *, P=0.01 to 0.05 as compared with animals treated with 5 mg/kg TRIOPEP in free form; ***, P=0.0001 to 0.001 as compared with PBS-treated animals.

[4] = system: LPS-stimulated macrophages; test: cytokine production by LPS-stimulated macrophages; format: cell-based, murine; conditions: 24 h at 37° C.; for cytokine release by LPS-stimulated macrophages in the presence of HDL: with HDL
Procedure: FIG. 33 presents exemplary data showing cytokine production by LPS-stimulated macrophages incubated for 24 h at 37° C. with GF9, G-TE21, G-HV21 and G-KV21 in the presence of HDL.

[5] = system: J774A.1 macrophages; test: In vitro macrophage endocytosis of fluorescent peptides with or without HDL; format: cell-based, mouse; conditions: for receptors mediating in vitro macrophage endocytosis: pre-incubated with HDL, fucoidan, BLT-1, cytochalasin D; for in vitro macrophage endocytosis, effect of pre-incubation with HDL: rho B-labeled peptides, 1 mg/ml HDL
Procedure: The BALB/c murine macrophage cell line J774A.1 (ATCC TIB-67) were obtained from the American Type Culture Collection (ATCC, Manassas, Va.). The macrophage cells were cultured at 37° C. with 5% CO2 in Dulbecco's modified Eagle's medium (DMEM) (Cellgro, Mediatech Inc, Manassas, Va.) with 2 mM glutamine, 100 U/ml penicillin, 0.1 mg/ml streptomycin, and 10% fetal bovine serum (FBS) (Cellgro, Mediatech Inc, Manassas, Va.) and grown to approximately 90% of confluence in 6-well tissue culture plates (Corning, Tewksbury, Mass.). Cells were incubated for varied time periods from 4 to 24 h at 37° C. with fluorescently labeled peptides (pre-incubated with 1 mg/ml HDL) at a concentration of 4 μM rhodamine B (rho-B). After incubation, cells were washed twice with PBS and lysed using Promega passive lysis buffer (Promega, Madison, Wis.). The rho B fluorescence was measured in the lysates with a 540 nm excitation and a 590 nm emission filters using the Gemini EM fluorescence microplate reader (Molecular Devices, Sunnyvale, Calif.). The protein concentration in the lysates was determined using the Bradford reagent (Bio-Rad, Richmond, Calif.) and the SpectraMax 190 microplate reader (Molecular Devices, Sunnyvale, Calif.).
In one embodiment, after reaching target confluency, cells were incubated for 1 h in medium with or without fucoidan (400 μg/mL), BLT-1 (10 μM) or cytochalasin D (40 μM), Cells were subsequently incubated for 4 h and 22 h at 37° C. in medium containing 2 μM of rho B-labeled peptides G-KV21 and G-HV21 (as calculated for rho B) that were pre-incubated with 1 mg/ml HDL. After incubation, cells were washed twice with PBS and lysed using Promega passive lysis buffer. The rho B fluorescence and protein concentration were measured in the lysates as described above.

[6] = system: AsPC-1, BxPC-3 and Capan-1 xenograft tumors; test: Human PC xenograft mouse models: tumor growth, survival, tolerability; format: in vivo; conditions: free peptides i.p. once daily 5 days per week at indicated doses
Procedure: (§1) Mice were monitored daily and tumor measurements were taken along the length and width using Vernier calipers twice weekly until sacrifice. Tumor volumes were calculated using a modified ellipsoidal formula: (Length×Width^2)/2.
Results are expressed as the mean±SEM.
as §1
Mice were monitored daily and tumor measurements were taken along the length and width using Vernier calipers twice weekly until sacrifice.

SMILES	protection from LPS-induced septic shock / survival [1]	survival of LPS-challenged mice [2]	TNF-alpha, IL-6 and IL-1beta production in mice at 90 min post LPS challenge [3]	cytokine release by LPS-stimulated macrophages in the presence of HDL [4]	cytokine production by LPS-stimulated macrophages in the absence of HDL ([4]; without HDL)	receptors mediating in vitro macrophage endocytosis [5]	in vitro macrophage endocytosis, effect of pre-incubation with HDL [5]	tumor growth [6]
CC(C)C[C@H](NC(=O)[C@H](Cc1ccccc1)NC(=O)CN)C(=O)N[C@@H](CO)C(=O)N[C@@H](CCCCN)C(=O)N[C@@H](CO)C(=O)N[C@@H](CC(C)C)C(=O)N[C@H](C(=O)N[C@@H](Cc1ccccc1)C(=O)NCC(=O)N[C@@H](CCC(=O)O)C(=O)N[C@@H](CCC(=O)O)C(=O)N[C@@H](CC[S+](C)[O-])C(=O)N[C@@H](CCCNC(=N)N)C(=O)N[C@@H](CC(=O)O)C(=O)N[C@@H](CCCNC(=N)N)C(=O)N[C@@H](C)C(=O)N[C@@H](CCCNC(=N)N)C(=O)N[C@@H](C)C(=O)N[C@@H](Cc1c[nH]cn1)C(=O)N[C@H](C(=O)O)C(C)C)C(C)C (stereo partly drawn) [G-HV21] (HELM PEPTIDE1{G.F.L.S.K.S.L.V.F.G.E.E.[CS(=O)CC[C@H](N[*:1])C(=O)[*:2]].R.D.R.A.R.A.H.V}$$$$V2.0)	protect mice from LPS-induced septic shock and prolongs survival of septic mice	significantly improve survival	significantly inhibit the LPS-induced cytokine release	significantly inhibit the cytokine release	does not affect the cytokine production	mediated with scavenger receptors (SR) A (SR-A) and BI (SR-B1) with SR-A being the predominant mediator	enhances in vitro macrophage endocytosis	inhibit tumor growth in three human PC xenograft mouse models
CC(C)C[C@H](NC(=O)[C@H](Cc1ccccc1)NC(=O)CN)C(=O)N[C@@H](CO)C(=O)N[C@@H](CCCCN)C(=O)N[C@@H](CO)C(=O)N[C@@H](CC(C)C)C(=O)N[C@H](C(=O)N[C@@H](Cc1ccccc1)C(=O)N[C@@H](Cc1c[nH]c2ccccc12)C(=O)N[C@@H](CCC(N)=O)C(=O)N[C@@H](CCC(=O)O)C(=O)N[C@@H](CCC(=O)O)C(=O)N[C@@H](CC[S+](C)[O-])C(=O)N[C@@H](CCC(=O)O)C(=O)N[C@@H](CC(C)C)C(=O)N[C@@H](Cc1ccc(O)cc1)C(=O)N[C@@H](CCCNC(=N)N)C(=O)N[C@@H](CCC(N)=O)C(=O)N[C@@H](CCCCN)C(=O)N[C@H](C(=O)O)C(C)C)C(C)C (stereo partly drawn) [G-KV21] (HELM PEPTIDE1{G.F.L.S.K.S.L.V.F.W.Q.E.E.[CS(=O)CC[C@H](N[*:1])C(=O)[*:2]].E.L.Y.R.Q.K.V}$$$$V2.0)	protect mice from LPS-induced septic shock and prolongs survival of septic mice	significantly improve survival	significantly inhibit the LPS-induced cytokine release	significantly inhibit the cytokine release		mediated with scavenger receptors (SR) A (SR-A) and BI (SR-B1) with SR-A being the predominant mediator	enhances in vitro macrophage endocytosis	inhibit tumor growth in three human PC xenograft mouse models
